Assay results reported in ChEMBL document CHEMBL3885881, “DrugMatrix”.

Organism: Rattus norvegicus
Experiment: DrugMatrix - Regimen: Daily Repeat
Format: toxicity, organism-based, Sprague-Dawley
Set-up: regimen Daily Repeat, gender Male, age 6-8 weeks
Conditions: in vivo, po, route oral GAVAGE, vehicle 100 % WATER; for ABSOLUTE BASOPHIL / ABSOLUTE EOSINOPHIL / ABSOLUTE LYMPHOCYTE / ABSOLUTE MONOCYTE / ABSOLUTE SEGMENTED NEUTROPHIL / BASOPHIL / EOSINOPHIL / ERYTHROCYTE COUNT / HEMATOCRIT / HEMOGLOBIN / LEUKOCYTE COUNT / LYMPHOCYTE / MEAN CORPUSCULAR HEMOGLOBIN / MEAN CORPUSCULAR HEMOGLOBIN CONCENTRATION / MONOCYTE / NEUTROPHIL / NUCLEATED RED BLOOD CELLS / PLATELET COUNT: tissue Blood; for ALANINE AMINOTRANSFERASE / ALBUMIN / ALKALINE PHOSPHATASE / ASPARTATE AMINOTRANSFERASE / BLOOD UREA NITROGEN / CARBON DIOXIDE / CHLORIDE / CREATINE PHOSPHOKINASE / CREATININE / GLUCOSE / LACTATE DEHYDROGENASE / LIPASE / PHOSPHORUS / POTASSIUM / SODIUM / TOTAL BILIRUBIN / TOTAL PROTEIN / URIC ACID / CHOLESTEROL: tissue Plasma
[1] = 35 mg/kg, 120 h, dose level Low, time 5 day
[2] = 1300 mg/kg, 72 h, dose level High, time 3 day
[3] = 1300 mg/kg, 120 h, dose level High, time 5 day

Nc1ccn([C@@H]2CS[C@H](CO)O2)c(=O)n1 [LAMIVUDINE]
ABSOLUTE BASOPHIL [1]: 0 CELLS/uL | ABSOLUTE EOSINOPHIL [1]: 0 CELLS/uL | ABSOLUTE LYMPHOCYTE [1]: 6530 CELLS/uL | ABSOLUTE MONOCYTE [1]: 98.67 CELLS/uL | ABSOLUTE SEGMENTED NEUTROPHIL [1]: 638 CELLS/uL | BASOPHIL [1]: 0% | EOSINOPHIL [1]: 0% | ERYTHROCYTE COUNT [1]: 5.57 x10E6/uL | HEMATOCRIT [1]: 34.73% | HEMOGLOBIN [1]: 13.6 G/DL | LEUKOCYTE COUNT [1]: 7.27 x10E3/uL | LYMPHOCYTE [1]: 89.67% | MEAN CORPUSCULAR HEMOGLOBIN [1]: 24.43 pg | MEAN CORPUSCULAR HEMOGLOBIN CONCENTRATION [1]: 39.2 G/DL | MONOCYTE [1]: 1.33% | NEUTROPHIL [1]: 9% | NUCLEATED RED BLOOD CELLS [1]: 0.33 /100WBC | PLATELET COUNT [1]: 1079.33 x10E3/uL | ALANINE AMINOTRANSFERASE [1]: 45.33 u/L | ALBUMIN [1]: 4.1 G/DL | ALKALINE PHOSPHATASE [1]: 359.67 u/L | ASPARTATE AMINOTRANSFERASE [1]: 82.67 u/L | BLOOD UREA NITROGEN [1]: 16.67 mg/dL | CARBON DIOXIDE [1]: 31.33 mmol/L | CHLORIDE [1]: 100.33 MEQ/L | CREATINE PHOSPHOKINASE [1]: 391.67 u/L | CREATININE [1]: 0.16 mg/dL | GLUCOSE [1]: 152 mg/dL | LACTATE DEHYDROGENASE [1]: 141.33 u/L | LIPASE [1]: 8.33 u/L | PHOSPHORUS [1]: 11.47 mg/dL | POTASSIUM [1]: 5.48 MEQ/L | SODIUM [1]: 144.47 MEQ/L | TOTAL BILIRUBIN [1]: 0.2 mg/dL | TOTAL PROTEIN [1]: 6.13 G/DL | URIC ACID [1]: 0.6 mg/dL | ABSOLUTE BASOPHIL [2]: 0 CELLS/uL | ABSOLUTE EOSINOPHIL [2]: 0 CELLS/uL | ABSOLUTE LYMPHOCYTE [2]: 11276.67 CELLS/uL | ABSOLUTE MONOCYTE [2]: 81 CELLS/uL | ABSOLUTE SEGMENTED NEUTROPHIL [2]: 842.33 CELLS/uL | BASOPHIL [2]: 0% | EOSINOPHIL [2]: 0% | ERYTHROCYTE COUNT [2]: 5.54 x10E6/uL | HEMATOCRIT [2]: 34.33% | HEMOGLOBIN [2]: 13.53 G/DL | LEUKOCYTE COUNT [2]: 12.2 x10E3/uL | LYMPHOCYTE [2]: 92.33% | MEAN CORPUSCULAR HEMOGLOBIN [2]: 24.43 pg | MEAN CORPUSCULAR HEMOGLOBIN CONCENTRATION [2]: 39.4 G/DL | MONOCYTE [2]: 0.67% | NEUTROPHIL [2]: 7% | NUCLEATED RED BLOOD CELLS [2]: 0.33 /100WBC | PLATELET COUNT [2]: 1155.33 x10E3/uL | ALANINE AMINOTRANSFERASE [2]: 45.67 u/L | ALBUMIN [2]: 4 G/DL | ALKALINE PHOSPHATASE [2]: 373.67 u/L | ASPARTATE AMINOTRANSFERASE [2]: 80 u/L | BLOOD UREA NITROGEN [2]: 10.67 mg/dL | CARBON DIOXIDE [2]: 27 mmol/L | CHLORIDE [2]: 102.33 MEQ/L | CHOLESTEROL [2]: 78.67 mg/dL | CREATINE PHOSPHOKINASE [2]: 337 u/L | CREATININE [2]: 0.17 mg/dL | GLUCOSE [2]: 141 mg/dL | LACTATE DEHYDROGENASE [2]: 297.67 u/L | LIPASE [2]: 9.67 u/L | PHOSPHORUS [2]: 11.83 mg/dL | POTASSIUM [2]: 6.19 MEQ/L | SODIUM [2]: 143.47 MEQ/L | TOTAL BILIRUBIN [2]: 0.13 mg/dL | TOTAL PROTEIN [2]: 5.8 G/DL | URIC ACID [2]: 1.57 mg/dL | ABSOLUTE BASOPHIL [3]: 0 CELLS/uL | ABSOLUTE EOSINOPHIL [3]: 61 CELLS/uL | ABSOLUTE LYMPHOCYTE [3]: 14479 CELLS/uL | ABSOLUTE MONOCYTE [3]: 224.33 CELLS/uL | ABSOLUTE SEGMENTED NEUTROPHIL [3]: 1569 CELLS/uL | BASOPHIL [3]: 0% | EOSINOPHIL [3]: 0.33% | ERYTHROCYTE COUNT [3]: 5.68 x10E6/uL | HEMATOCRIT [3]: 36.2% | HEMOGLOBIN [3]: 13.93 G/DL | LEUKOCYTE COUNT [3]: 16.33 x10E3/uL | LYMPHOCYTE [3]: 88.67% | MEAN CORPUSCULAR HEMOGLOBIN [3]: 24.5 pg | MEAN CORPUSCULAR HEMOGLOBIN CONCENTRATION [3]: 38.5 G/DL | MONOCYTE [3]: 1.33% | NEUTROPHIL [3]: 9.67% | NUCLEATED RED BLOOD CELLS [3]: 0 /100WBC | PLATELET COUNT [3]: 1204.33 x10E3/uL | ALANINE AMINOTRANSFERASE [3]: 50 u/L | ALBUMIN [3]: 3.9 G/DL | ALKALINE PHOSPHATASE [3]: 303.67 u/L | ASPARTATE AMINOTRANSFERASE [3]: 84.33 u/L | BLOOD UREA NITROGEN [3]: 15 mg/dL | CARBON DIOXIDE [3]: 24.33 mmol/L | CHLORIDE [3]: 102 MEQ/L | CHOLESTEROL [3]: 70 mg/dL | CREATINE PHOSPHOKINASE [3]: 295.33 u/L | CREATININE [3]: 0.2 mg/dL | GLUCOSE [3]: 162.67 mg/dL | LACTATE DEHYDROGENASE [3]: 239 u/L | LIPASE [3]: 11 u/L | PHOSPHORUS [3]: 11.9 mg/dL | POTASSIUM [3]: 6.04 MEQ/L | SODIUM [3]: 143.87 MEQ/L | TOTAL BILIRUBIN [3]: 0.17 mg/dL | TOTAL PROTEIN [3]: 5.73 G/DL | URIC ACID [3]: 1.53 mg/dL
